“Also recorded” adds a separate entry of the source.
Experiments:
cancer cells = assay: ELANE internalization by cancer cells and effect of endocytosis inhibitor; type: cell-based; details: cancer cell lysates, 30 mins
Experimental: FIGS. 1A-1K. ELANE cleaves CD95 to selectively kill cancer cells. (A): Heatmap summary of ELANE's effects on survival, stress, and apoptosis pathways in cancer cells and healthy cells. (B-C): Cancer cells were treated with ELANE (100 nM) and CD95 cleavage was assessed by western blotting using anti-N-terminal (B) or anti-C-terminal antibodies (C). *, lower molecular weight CD95 fragment. (D): Cancer cells or non-cancer cells were transduced to overexpress CD95 proteins, and effects on ELANE-mediated apoptosis were quantified by ANXAS at 30 min. n=2/group. See FIG. 1I for transduction and CD95 over-expression. (E): Cleavage of recombinant human CD95 N-terminal (aa 1-173) or C-terminal (aa 212-335) proteins by ELANE was assessed by SDS-PAGE and Coomassie blue staining. (F): Bands from (E) were digested with trypsin and analyzed by mass spectrometry to identify putative ELANE cleavage sites (i.e., peptides with non-tryptic ends). Major non-tryptic peptides were quantified by ion chromatograms. (G): Schematic of ELANE cleavage sites in CD95. […] (H): Cleavage of recombinant peptides corresponding to aa 214-231 and aa 317-335 in CD95 by ELANE was monitored by mass spectrometry. (I): Cancer cells or non-cancer cells were treated with fluorescein-labeled ELANE for 10 min and uptake was visualized by immunofluorescence. (J): ELANE catalytic activity in cancer cell lysates following exposure to ELANE for 30 mins in the presence and absence of Dynasore (60 μM endocytosis inhibitor). Effect of Dynasore on cancer cell killing capability of ELANE (measured by calcein-AM). n=6/group. (K): Cancer cells or non-cancer cells were transduced to overexpress various CD95 proteins, and cell viability in the absence of ELANE was determined by calcein-AM. n=10/group. *, p<0.05 Student's t-test.

[1] = Assessment of potential side-effects in tumor-free C57BL/6 mice; type: in vivo
Experimental: Assessment of potential side-effects. ELANE or PMSF-ELANE (11.6 μg/100 μL) were injected into the 4th mammary fat pad of the right ventral side pad of tumor-free C57BL/6 mice once/day for 5 days. One day after the last injection, mice were studied for potential side-effects. Body weight and spleen weight were measured. Apoptosis at the injection site was studied by isolating, fixing, and staining mammary adipose tissue for TUNEL, cCASP3, and cPARP using identical methods described for tumors above. Mammary adipose tissue immune cell populations at the injection site were determined by flow cytometry using identical methods described for tumors above. Liver function was assessed by measuring plasma ALT activity with the Alanine Transaminase Colorimetric Activity Assays Kit (Cayman Chemical).

E0771 or MEL888 tumors = assay: Resistance to ELANE, repeated treatment of tumors in vivo and killing ex vivo; parameters: species or system mice; details: once/day for 7 days, isolated cancer cells ex vivo
Source text: To explore whether cancer cells could acquire resistance to ELANE, a combination of in vitro and in vivo approaches were used.

hCD95 = assay: Cleavage of recombinant human CD95 proteins/peptides by ELANE (SDS-PAGE, mass spectrometry); type: biochemical; details: recombinant aa 1-173 and aa 212-335
Experimental: Identification of ELANE cleavage sites in CD95 by mass spectrometry. Recombinant human C-terminal CD95 (aa 212-335, MyBioSource, 10 μg) or recombinant N-terminal CD95 (aa 1-173, ThermoFisher Scientific, 10 μg) were digested with human ELANE (0.1 μg) for 2 h at 37° C., and reactions were stopped with SDS-PAGE loading buffer. Proteins were run on 20% SDS-PAGE gels, stained with Coomassie Blue (ThermoFisher Scientific), and bands were excised for mass spectrometric analyses. Proteins were extracted from excised bands.
Analysis of recombinant peptides by mass spectrometry. Recombinant peptides (10 μM) corresponding to aa 214-([…])-231 (SEQ ID NO:6) or 317-([…])-335 (SEQ ID NO:7) of human CD95 (ThermoFisher Scientific) were incubated with ELANE (0.1-0.2 μM) at 37° C. for 15-30 min. Reactions were stopped with 0.1% formic acid.

[2] = test system: tumors (MDA-MB-231, A549, MEL888, M1, 4195, E0771, LLC1, B16F10); assay: Intra-tumoral treatment of tumor models (xenograft, PDX, syngeneic); type: in vivo, mice
Experimental: Tumor inoculation and treatment. MDA-MB-231 cells (2×10^6), A549 cells (2×10^6) with Matrix Type 3), or MEL888 cells (2×10^6 with Matrix Type 3) were injected into athymic nude mice (Charles River); M1 or 4195 cells (50,000) were injected into NOD.SCID mice (JAX); and E0771 cells (0.5×10^6), LLC1 cells (0.5×10^6), or B16F10 cells (1×10^6), were injected into C57BL/6 mice (JAX). For TNBC models (MDA-MB-231, E0771, M1, 4195), cells were injected into the 4th mammary fat pad of the right ventral side. For all other models (A549, LLC1, MEL888, B16F10), cells were injected into the flank. Once tumors reached ˜100 mm^3, ELANE or PMSF-ELANE (11.6 μg/100 μL), or neutrophil medias or HSA (50 μg/100 μL) were delivered IT once/day for 5 days. Tumor volume was assessed by calipers, and experiments were terminated when tumor volume in control mice reached >1000 mm^3.
Tumor immunohistochemistry. Tumors were fixed in 4% paraformaldehyde in PBS for 24 h, embedded in paraffin blocks, and sectioned (5 μm). Slides were stained with cCASP3 (9661) and cPARP (9625) antibodies from Cell Signaling Technology. Signals were developed using the VECTASTAIN ABC kit (Vector Laboratories) or fluorescently-labeled secondary antibodies (melanoma models). For the TUNEL assay, staining was performed with the DeadEnd™ colorimetric or fluorometric TUNEL systems (Promega). Cell nuclei were labeled with haematoxylin or Hoechst 33342 (ThermoFisher Scientific). Images were obtained with a Nikon Eclipse Ti2 microscope and analyzed using NIS-Elements software.

**Q.** What does the source list for “ELANE: neutrophil elastase, a serine protease released by human PMNs”?
**A.** catalytic activity of internalized ELANE (cancer cells): retained its catalytic activity; side effects ([1]; ELANE 12 μg/day into mammary fat pads): did not produce evident side effects; apoptosis at injection site ([1]; ELANE injected into tumor-free C57BL/6 mice): no evidence of apoptosis was found; acquired resistance after repeated treatment in vivo (E0771 or MEL888 tumors): did not attenuate ELANE's ability to kill the isolated cancer cells ex vivo; cleavage of CD95 N- or C-terminal domain (hCD95): preferentially cleaved the C-terminal domain; also recorded: degrades the C-terminal domain of purified CD95; therapeutic benefit, dose finding ([2]; E0771 TNBC model, IT, 12 μg/day): good therapeutic benefit that was reproducible; tumor growth ([2]; ELANE 12 μg/day IT, TNBC, lung cancer, melanoma models): attenuated tumor growth in all models tested; staining for TUNEL, cPARP, and cCASP3 in tumors ([2]; ELANE IT): increase in staining for TUNEL, cPARP, and cCASP3 in all ELANE-treated tumors; tumors with a crater ([2]; all immunocompetent models tested): ~40%; craters in tumor-free mice and immunocompromised cancer models ([2]; mouse, in vivo): Craters were not observed

Reference: patent US12611443B2, “Methods and compositions related to therapeutic peptides for cancer therapy” (THE UNIVERSITY OF CHICAGO, priority 2018, dated 2026)
